US20260015350A1, “AZAQUINAZOLINE PAN-KRAS INHIBITORS” (Mirati Therapeutics, Inc., priority 2022, published 2026)

Tests used:
[1] = tested on: KRas-mediated phosphorylation of ERK in PSN1 cells; assay: Inhibition of KRas-mediated phosphorylation of ERK (Cisbio HTRF pERK), PSN1 cells; assay type: cell-based; conditions: Homo sapiens
Procedure, shortened: (§1)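 Phospho-ERK is quantified by HTRF with the Advanced pERK kit. Cells go in at 6,000/well in RPMI plus 10% FBS overnight at 37° C. under 5% CO2, with a 4-hour covered room-temperature incubation ahead of the read.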

[2] = tested on: KRas-mediated phosphorylation of ERK in H460 cells; assay: Inhibition of KRas-mediated phosphorylation of ERK (Cisbio HTRF pERK), H460 cells; assay type: cell-based; conditions: Homo sapiens, NCI-H460, HTRF pERK
Procedure, shortened: (§2)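 Using 6,000 cells per well, compounds are applied for 3 hrs and cells then lysed at 4° C with shaking for 40 mins. Phospho-ERK is measured by HTRF after 2 hrs of lysate incubation with the d2/Cryptate antibody mixture.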

[3] = tested on: KRas-mediated phosphorylation of ERK in HCT116 cells; assay: Inhibition of KRas-mediated phosphorylation of ERK (Cisbio HTRF pERK), HCT116 cells; assay type: cell-based; conditions: Homo sapiens, HCT-116, HTRF pERK
Procedure, shortened: (§3)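 6,000 cells/well; cpd 10 uM top, 3-fold x10, 0.8% DMSO final; 3 hr incubation; Min ctrl Trametinib 0.2 uM; lysis 40 min 4° C shaking; d2 + Cryptate Ab mix, 2 hr RT; HTRF read.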

KRas^G12D = biological target: T1, KRas^G12D (Homo sapiens, UniProt P01116, G12D); assay: KRas binding assay (TR-FRET tracer displacement), KRas G12D
T1 construct: Biotinylated KRas (corresponding to amino acids 1-169, produced at Accelegan Inc.); biotin (biotinylated); purchased Accelegan Inc
T1 sequence (P01116 1-169 isoform P01116-2 G12D): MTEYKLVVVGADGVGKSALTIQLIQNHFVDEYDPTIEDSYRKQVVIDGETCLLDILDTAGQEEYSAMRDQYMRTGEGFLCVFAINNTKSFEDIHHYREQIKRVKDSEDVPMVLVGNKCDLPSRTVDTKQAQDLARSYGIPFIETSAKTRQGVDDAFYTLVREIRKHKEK

[4] = tested on: KRas-mediated phosphorylation of ERK in AsPC-1 cells; assay: Inhibition of KRas-mediated phosphorylation of ERK (Cisbio HTRF pERK), AsPC-1 cells; assay type: cell-based; conditions: Homo sapiens, ASPC1, AsPC-1 cells; HTRF pERK
Procedure, shortened: as §2

[5] = tested on: KRas-mediated phosphorylation of ERK in MKN1 cells; assay: Inhibition of KRas-mediated phosphorylation of ERK (Cisbio HTRF pERK), MKN1 cells; assay type: cell-based; conditions: Homo sapiens, MKN-1
Procedure, shortened: as §1

[6] = tested on: KRas-mediated phosphorylation of ERK in A549 cells; assay: Inhibition of KRas-mediated phosphorylation of ERK (Cisbio HTRF pERK), A549 cells; assay type: cell-based; conditions: Homo sapiens, HTRF pERK
Procedure, shortened: as §3

KRas^G12R = biological target: T2, KRas^G12R (Homo sapiens, UniProt P01116, G12R); assay: KRas binding assay (TR-FRET tracer displacement), KRas G12R
T2 construct: Biotinylated KRas (corresponding to amino acids 1-169, produced at Accelegan Inc.); biotin (biotinylated); purchased Accelegan Inc
T2 sequence (P01116 1-169 isoform P01116-2 G12R): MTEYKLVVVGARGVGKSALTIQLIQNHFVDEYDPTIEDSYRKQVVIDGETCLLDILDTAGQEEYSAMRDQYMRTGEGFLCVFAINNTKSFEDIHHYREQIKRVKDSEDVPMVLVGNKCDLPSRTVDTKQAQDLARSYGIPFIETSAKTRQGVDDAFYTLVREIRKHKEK

[7] = tested on: KRas-mediated phosphorylation of ERK in H358 cells; assay: Inhibition of KRas-mediated phosphorylation of ERK (Cisbio HTRF pERK), H358 cells; assay type: cell-based; conditions: Homo sapiens, NCI-H358, HTRF pERK
Procedure, shortened: as §2

KRas^G12V = biological target: T3, KRas^G12V (Homo sapiens, UniProt P01116, G12V); assay: KRas binding assay (TR-FRET tracer displacement), KRas G12V
T3 construct: Biotinylated KRas (corresponding to amino acids 1-169, produced at Accelegan Inc.); biotin (biotinylated); purchased Accelegan Inc
T3 sequence (P01116 1-169 isoform P01116-2 G12V): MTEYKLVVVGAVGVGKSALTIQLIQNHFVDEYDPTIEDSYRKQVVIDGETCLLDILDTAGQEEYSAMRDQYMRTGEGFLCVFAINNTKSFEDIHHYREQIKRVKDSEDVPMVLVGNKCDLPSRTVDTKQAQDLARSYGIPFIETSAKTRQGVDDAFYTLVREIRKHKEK

[8] = tested on: KRas-mediated phosphorylation of ERK in H727 cells; assay: Inhibition of KRas-mediated phosphorylation of ERK (Cisbio HTRF pERK), H727 cells; assay type: cell-based; conditions: Homo sapiens, NCI-H727, H727 cells; HTRF pERK
Procedure, shortened: as §2

| Structure (SMILES) | IC50 [1] | IC50 [2] | IC50 [3] | IC50 (KRas^G12D) | IC50 [4] | IC50 [5] | IC50 [6] | IC50 (KRas^G12R) | IC50 [7] | IC50 (KRas^G12V) | IC50 [8] |
| --- | --- | --- | --- | --- | --- | --- | --- | --- | --- | --- | --- |
| CCc1c(F)ccc2cc(O)cc(-c3ncc4c(N5CC6CCC(C5)C6CCO)nc(OC[C@@]56CCCN5C[C@H](F)C6)nc4c3F)c12 (stereo partly drawn) [Example 847, 5-ethyl-6-fluoro-4-(8-fluoro-2-(((2R,7aS)-2-fluorotetrahydro-1H-pyrrolizin-7a(5H)-yl)methoxy)-4-((1R,5S,8S)-8-(2-hydroxyethyl)-3-azabicyclo[3.2.1]octan-3-yl)pyrido[4,3-d]pyrimidin-7-yl)naphthalen-2-ol] | > 10000 nM | 582 nM | 1430 nM | 140 nM | 4520 nM | 270 nM | 1820 nM | 39 nM | 494 nM | 20 nM | 1640 nM |
| CCc1c(F)ccc2cc(O)cc(-c3ncc4c(N5C[C@H]6CC[C@@H](C5)[C@H]6O)nc(OC[C@@]56CCCN5C[C@H](F)C6)nc4c3F)c12 [Example 848, (1R,5S,8S)-3-(7-(8-ethyl-7-fluoro-3-hydroxynaphthalen-1-yl)-8-fluoro-2-(((2R,7aS)-2-fluorotetrahydro-1H-pyrrolizin-7a(5H)-yl)methoxy)pyrido[4,3-d]pyrimidin-4-yl)-3-azabicyclo[3.2.1]octan-8-ol] | > 10000 nM | 275 nM | 496 nM | 39 nM | 2060 nM | 100 nM | 809 nM | 12 nM | 310 nM | 9 nM | 896 nM |
| C=C1[C@@H]2CC[C@H]1CN(c1nc(OC[C@@]34CCCN3C[C@H](F)C4)nc3c(F)c(-c4cc(O)cc5ccc(F)c(CC)c45)ncc13)C2 [Example 849, 5-ethyl-6-fluoro-4-(8-fluoro-2-(((2R,7aS)-2-fluorotetrahydro-1H-pyrrolizin-7a(5H)-yl)methoxy)-4-((1R,5S)-8-methylene-3-azabicyclo[3.2.1]octan-3-yl)pyrido[4,3-d]pyrimidin-7-yl)naphthalen-2-ol] | > 10000 nM | 802 nM | 1780 nM | 65 nM | 3090 nM | 189 nM | 1270 nM | 24 nM | 286 nM | 9 nM | 1000 nM |
| CCc1c(F)ccc2cc(O)cc(-c3ncc4c(N5CCC[C@@](C)(O)C5)nc(OC[C@@]56CCCN5[C@H](COCC5CCC5)CC6)nc4c3F)c12 [Example 852, (R)-1-(2-(((3S,7aS)-3-((cyclobutylmethoxy)methyl)tetrahydro-1H-pyrrolizin-7a(5H)-yl)methoxy)-7-(8-ethyl-7-fluoro-3-hydroxynaphthalen-1-yl)-8-fluoropyrido[4,3-d]pyrimidin-4-yl)-3-methylpiperidin-3-ol] | 923 nM | 42 nM | 38 nM | < 2 nM | 35 nM | 5 nM | 68 nM | < 2 nM | 12 nM | < 2 nM | 109 nM |
| CCOC[C@@H]1CC[C@]2(COc3nc(N4CCC[C@@](C)(O)C4)c4cnc(-c5cc(O)cc6ccc(F)c(CC)c56)c(F)c4n3)CCCN12 [Example 853, (R)-1-(2-(((3S,7aS)-3-(ethoxymethyl)tetrahydro-1H-pyrrolizin-7a(5H)-yl)methoxy)-7-(8-ethyl-7-fluoro-3-hydroxynaphthalen-1-yl)-8-fluoropyrido[4,3-d]pyrimidin-4-yl)-3-methylpiperidin-3-ol] | 1070 nM | 23 nM | 36 nM | < 2 nM | 33 nM | 1 nM | 39 nM | < 2 nM | 10 nM | < 2 nM | 67 nM |
| CCc1c(F)ccc2cc(O)cc(-c3ncc4c(N5CC6CCC(C5)C6C(=O)N(C)C)nc(OC[C@@]56CCCN5C[C@H](F)C6)nc4c3F)c12 (stereo partly drawn) [Example 858, (1R,5S,8S)-3-(7-(8-ethyl-7-fluoro-3-hydroxynaphthalen-1-yl)-8-fluoro-2-(((2R,7aS)-2-fluorotetrahydro-1H-pyrrolizin-7a(5H)-yl)methoxy)pyrido[4,3-d]pyrimidin-4-yl)-N,N-dimethyl-3-azabicyclo[3.2.1]octane-8-carboxamide] | > 10000 nM | 7 nM | 21 nM | 6 nM | 138 nM | 3 nM | 19 nM | 10 nM | 43 nM | 7 nM | 375 nM |
| CCc1c(F)ccc2cc(O)cc(-c3ncc4c(N5CC6CCC(C5)C6CC(N)=O)nc(OC[C@@]56CCCN5C[C@H](F)C6)nc4c3F)c12 (stereo partly drawn) [Example 859, 2-((1R,5S,8S)-3-(7-(8-ethyl-7-fluoro-3-hydroxynaphthalen-1-yl)-8-fluoro-2-(((2R,7aS)-2-fluorotetrahydro-1H-pyrrolizin-7a(5H)-yl)methoxy)pyrido[4,3-d]pyrimidin-4-yl)-3-azabicyclo[3.2.1]octan-8-yl)acetamide] | > 10000 nM | 892 nM | 1260 nM | 51 nM | > 10000 nM | 56 nM | > 10000 nM | 13 nM | 1140 nM | 17 nM | 5480 nM |

Other lines, results leading:

| IC50 [1] | IC50 [2] | IC50 [3] | IC50 (KRas^G12D) | IC50 [4] | IC50 [5] | IC50 [6] | IC50 (KRas^G12R) | IC50 [7] | IC50 (KRas^G12V) | IC50 [8] | Structure (SMILES) |
| --- | --- | --- | --- | --- | --- | --- | --- | --- | --- | --- | --- |
| > 10000 nM | 83 nM | 171 nM | 6 nM | 1450 nM | 4 nM | 862 nM | 10 nM | 150 nM | 8 nM | 2280 nM | CCc1c(F)ccc2cc(O)cc(-c3ncc4c(N5CC6CCC(C5)C6C(=O)NC)nc(OC[C@@]56CCCN5C[C@H](F)C6)nc4c3F)c12 (stereo partly drawn) [Example 850, (1R,5S,8S)-3-(7-(8-ethyl-7-fluoro-3-hydroxynaphthalen-1-yl)-8-fluoro-2-(((2R,7aS)-2-fluorotetrahydro-1H-pyrrolizin-7a(5H)-yl)methoxy)pyrido[4,3-d]pyrimidin-4-yl)-N-methyl-3-azabicyclo[3.2.1]octane-8-carboxamide] |
| 3690 nM | 21 nM | 40 nM | < 2 nM | 20 nM | 6 nM | 36 nM | < 2 nM | 11 nM | < 2 nM | 48 nM | CN(C)CC1(COc2nc(N3CCCC4(CCO4)C3)c3cnc(-c4cc(O)cc5ccc(F)c(Cl)c45)c(F)c3n2)CC1 (stereo not shown) [Example 854, 5-chloro-4-(2-((1-((dimethylamino)methyl)cyclopropyl)methoxy)-8-fluoro-4-(1-oxa-6-azaspiro[3.5]nonan-6-yl)pyrido[4,3-d]pyrimidin-7-yl)-6-fluoronaphthalen-2-ol] |
| > 10000 nM | 144 nM | 410 nM | 19 nM | 967 nM | 6 nM | 611 nM | 9 nM | 369 nM | 6 nM | 352 nM | CCc1c(F)ccc2cc(O)cc(-c3ncc4c(N5CC6CCC(COCCOC)(C6)C5)nc(OC[C@@]56CCCN5C[C@H](F)C6)nc4c3F)c12 (stereo partly drawn) [Example 857, 5-ethyl-6-fluoro-4-(8-fluoro-2-(((2R,7aS)-2-fluorotetrahydro-1H-pyrrolizin-7a(5H)-yl)methoxy)-4-(1-((2-methoxyethoxy)methyl)-3-azabicyclo[3.2.1]octan-3-yl)pyrido[4,3-d]pyrimidin-7-yl)naphthalen-2-ol] |
| > 10000 nM | 395 nM | 600 nM | 91 nM | 2600 nM | 7 nM | 2760 nM | 68 nM | 455 nM | 13 nM | 1120 nM | CCc1c(F)ccc2cc(O)cc(-c3ncc4c(N5CC6CCC(C5)C6CC(=O)N(C)C)nc(OC[C@@]56CCCN5C[C@H](F)C6)nc4c3F)c12 (stereo partly drawn) [Example 860, 2-((1R,5S,8S)-3-(7-(8-ethyl-7-fluoro-3-hydroxynaphthalen-1-yl)-8-fluoro-2-(((2R,7aS)-2-fluorotetrahydro-1H-pyrrolizin-7a(5H)-yl)methoxy)pyrido[4,3-d]pyrimidin-4-yl)-3-azabicyclo[3.2.1]octan-8-yl)-N,N-dimethylacetamide] |
